{"source": "patent US20110251216A1", "about": "“COMPOSITIONS AND METHODS FOR INHIBITING EZH2” (The Regents of The University of Michigan, priority 2010, published 2011)", "assay_type_in_all_cases": "cell-based", "key": {"[1]": {"tested_on": "breast cell line HME infected with EZH2 adenovirus", "assay": "basement membrane matrix invasion assay, EZH2 overexpressing HME cells", "experimental": "(§1) A, Dose response of isoliquiritigenin on inhibiting EZH2 mediated repression. B, A reconstituted basement membrane invasion chamber assay was used to assess the invasion of breast epithelial cell line infected with EZH2 and control adenoviruses as well as SET domain mutant EZH2 adenovirus. EZH2 treated cells were also treated with SAHA, the HDAC inhibitor and isoliquiritigenin, the small molecule inhibitor of EZH2 and the control small molecule phloretin.\nFor invasion assays, the breast cell lines HME was infected with EZH2 adenovirus. Forty-eight hours post-infection, cells were seeded onto the basement membrane matrix (EC matrix, Chemicon, Temecula, Calif.) present in the insert of a 24-well culture plate. Fetal bovine serum was added to the lower chamber as a chemoattractant with or without 2 doses of small molecule inhibitors. After 48 hours, the non-invading cells and EC matrix were gently removed with a cotton swab. Invasive cells located on the lower side of the chamber were measured colorimetrically by treating with 150 μl of 10% acetic acid and the absorbance measured at 560 nm using a spectrophotometer."}, "EZH2": {"target": "T1, EZH2 (Homo sapiens, UniProt Q15910)", "T1 construct": "expressed in transfected cells; host or cells: Primary breast cancer cells infected with EZH2 adenovirus", "T1 sequence (Q15910 whole entry)": "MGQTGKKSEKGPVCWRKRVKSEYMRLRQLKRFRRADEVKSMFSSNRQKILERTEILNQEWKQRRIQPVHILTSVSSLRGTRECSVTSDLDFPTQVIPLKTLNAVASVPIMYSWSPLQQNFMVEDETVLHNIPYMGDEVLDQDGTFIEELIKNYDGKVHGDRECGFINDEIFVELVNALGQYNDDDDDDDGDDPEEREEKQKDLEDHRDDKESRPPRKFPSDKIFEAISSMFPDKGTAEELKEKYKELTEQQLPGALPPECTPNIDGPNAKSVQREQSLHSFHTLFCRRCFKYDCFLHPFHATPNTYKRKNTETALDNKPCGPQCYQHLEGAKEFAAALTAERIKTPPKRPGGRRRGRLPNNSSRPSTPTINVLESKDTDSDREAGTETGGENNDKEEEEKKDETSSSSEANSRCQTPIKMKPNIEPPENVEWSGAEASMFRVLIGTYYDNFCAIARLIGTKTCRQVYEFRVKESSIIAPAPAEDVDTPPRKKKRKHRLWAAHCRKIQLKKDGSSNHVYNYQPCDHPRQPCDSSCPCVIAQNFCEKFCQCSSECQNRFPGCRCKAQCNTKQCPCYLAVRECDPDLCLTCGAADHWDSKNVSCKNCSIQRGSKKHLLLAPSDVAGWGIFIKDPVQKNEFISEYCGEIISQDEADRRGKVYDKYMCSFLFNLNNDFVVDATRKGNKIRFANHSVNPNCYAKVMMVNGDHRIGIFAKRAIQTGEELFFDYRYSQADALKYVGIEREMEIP", "T1 sequence (O75530 whole entry partner)": "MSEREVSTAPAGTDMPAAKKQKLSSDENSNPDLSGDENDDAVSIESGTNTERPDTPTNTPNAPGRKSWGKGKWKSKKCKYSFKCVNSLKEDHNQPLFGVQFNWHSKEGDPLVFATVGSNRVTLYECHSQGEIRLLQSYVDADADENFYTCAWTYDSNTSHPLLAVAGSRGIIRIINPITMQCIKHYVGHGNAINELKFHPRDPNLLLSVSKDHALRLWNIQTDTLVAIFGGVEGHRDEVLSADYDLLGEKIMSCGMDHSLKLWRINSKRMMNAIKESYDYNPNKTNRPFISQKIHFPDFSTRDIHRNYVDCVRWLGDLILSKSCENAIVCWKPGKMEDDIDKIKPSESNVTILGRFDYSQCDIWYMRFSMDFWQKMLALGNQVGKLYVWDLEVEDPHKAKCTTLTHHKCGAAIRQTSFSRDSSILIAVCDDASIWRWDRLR", "T1 sequence (Q15022 whole entry partner)": "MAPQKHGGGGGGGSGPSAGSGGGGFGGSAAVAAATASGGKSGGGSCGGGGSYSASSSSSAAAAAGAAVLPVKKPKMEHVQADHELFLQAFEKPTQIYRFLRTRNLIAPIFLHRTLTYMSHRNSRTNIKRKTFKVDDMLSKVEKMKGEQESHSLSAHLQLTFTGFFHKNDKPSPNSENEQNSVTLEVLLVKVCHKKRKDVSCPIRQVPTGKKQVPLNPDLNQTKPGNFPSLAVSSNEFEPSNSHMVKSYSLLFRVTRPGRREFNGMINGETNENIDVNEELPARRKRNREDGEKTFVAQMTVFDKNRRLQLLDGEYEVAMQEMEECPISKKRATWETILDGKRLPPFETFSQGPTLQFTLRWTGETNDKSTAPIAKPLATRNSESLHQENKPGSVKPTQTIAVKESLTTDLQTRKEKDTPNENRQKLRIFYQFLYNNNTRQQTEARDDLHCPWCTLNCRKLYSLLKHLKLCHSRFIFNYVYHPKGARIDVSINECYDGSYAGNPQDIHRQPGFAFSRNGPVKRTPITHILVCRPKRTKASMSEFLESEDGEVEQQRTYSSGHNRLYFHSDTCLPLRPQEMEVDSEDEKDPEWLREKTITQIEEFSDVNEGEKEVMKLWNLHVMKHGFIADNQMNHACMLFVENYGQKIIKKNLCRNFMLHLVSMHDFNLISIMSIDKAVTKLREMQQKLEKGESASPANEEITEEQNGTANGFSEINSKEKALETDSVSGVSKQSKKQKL", "assay": "high throughput screen, E-cadherin promoter luciferase reporter in EZH2 adenovirus infected cells", "conditions": "final compound concentration about 5 μM, 24 hours", "experimental": "A high throughput screening protocol was used to identify small molecule inhibitors of EZH2. Primary breast cancer cells were transfected with the E-cadherin promoter luciferase reporter gene and infected with the EZH2 adenovirus to suppress luciferase expression 48 hours prior to compound addition. Eighteen hours prior to compound addition, cells were trypsinized and distributed into 384-well plates in 60 μl of medium using the Multidrop equipment. At time zero, compounds were transferred from 1.5 mM DMSO stocks to the cell plates in a final compound concentration of about 5 μM. […] After 24 hours, the expressed luciferase activity was measured by adding 50 μl of the medium and 10 μl of Steady-Glo luciferase reagent (Promega). Sample plates were read in the Pherastar plate reader (BMG Labtech). Each plate in the screen contains 320 compounds to be tested plus 64 control wells placed in the outer two columns on each side of the plate (>50,000 compounds are screened). […]\nA high throughput screening protocol was used to identify small molecule inhibitors of EZH2. […] After 24 hours, the expressed luciferase activity was measured by adding 50 μl of the medium and 10 ul of Steady-Glo luciferase reagent (Promega). Sample plates were read in the Pherastar plate reader (BMG Labtech). […]"}, "[2]": {"tested_on": "EZH2 mediated E cadherin repression", "assay": "EZH2 mediated E cadherin repression, SYBR green RT-PCR and dose response", "experimental": "A, Chemical structure of the flavonoid isoliquiritigenin. B, Quantitative SYBR green RT-PCR of EZH2 and E cadherin transcripts in cell lines over expressing EZH2 and control adenoviruses. RT-PCR on each sample was performed in duplicate, and a ratio was calculated relative to the housekeeping genes GAPDH. Transcripts were also measured in cells that were treated with isoliquiritigenin or other small molecules.\nas §1"}}, "data": [{"smiles": "O=C(CCc1ccc(O)cc1)c1c(O)cc(O)cc1O", "note": "[control small molecule, phloretin, reference compound]", "values": [{"measurement": "invasion mediated by EZH2 overexpression", "setting": "[1]", "result": "did not inhibit the invasion"}]}, {"smiles": "O=C(/C=C/c1ccc(O)cc1)c1ccc(O)cc1O", "note": "[isoliquiritigenin]", "values": [{"measurement": "EZH2 inhibitory activity in high throughput screen", "setting": "EZH2", "result": "potent small molecule inhibitor of EZH2 activity"}, {"measurement": "inhibition of EZH2 mediated E cadherin repression", "setting": "[2]; cells over expressing EZH2, FIG. 5B", "result": "significantly inhibit"}, {"measurement": "concentration that optimally inhibits EZH2 mediated E cadherin repression", "setting": "[2]; dose response, FIG. 6A", "result": 16, "unit": "µM"}, {"measurement": "invasion mediated by EZH2 overexpression", "setting": "[1]", "result": "inhibited this invasion"}]}]}
